The text below walks through data of patent US8580751B2, “Esterified α-galactosylceramide” (Riken, priority 2008, dated 2013).

In assay [1] the test system is NKT cells. The note with it: cited from earlier work.
The subject of assay [2] is human NKT cells. The following applies: human system; cited from earlier work.
For assay [3], the system named is IFN-γ. Put plainly: IFN-γ content in serum after intraperitoneal administration of synthetic glycolipid to mouse (sandwich ELISA). It counts as in vivo. The note with it: 100 μg/kg body weight intraperitoneally, C57BL/6 mice, 6-24 hr (compounds 23, 24) or 3-60 hr (compound 33) after administration. On the procedure:
(§1) A 1 mg/mL dimethyl sulfoxide (DMSO) solution was prepared for each of α-GalCer, compound 23 and compound 24. The solutions were diluted with saline (manufactured by Otsuka Pharmaceutical Co., Ltd.) containing 0.5% Tween 20 (Bio-Rad) such that the dose would be 100 μg/kg body weight when 200 μL was intraperitoneally administered to one mouse.
(§2) Each of the prepared solutions (200 μL) of compounds 23 and 24 was intraperitoneally injected to C57BL/6 mice (2 per group). α-GalCer was used as a control substance, and 200 μL of α-GalCer solution prepared to a dose of 100 μg/kg body weight according to a similar method was injected intraperitoneally. A group administered with a medium (200 μL of saline containing 0.5% Tween 20) was taken as a negative control. The blood (80 μL) was taken from the orbital plexus venosus after the lapse of 6, 12 and 24 hr from the administration, and the serum was prepared.
(§3) The content of IFN-γ in the serum after lapse of 6, 12 and 24 hr from the administration was measured by sandwich ELISA (ENDOGEN). In addition, the content of IL-4 in the serum after lapse of 12 hr from the administration was measured by Cytometric bead array system (BD Biosciences), which is one kind of the ELISA method.
(§4) Using α-GalCer and compound 33, and according to a method similar to the above-mentioned Experimental Example 1, the blood (80 μL) was taken from the orbital plexus venosus after the lapse of 3, 6, 12, 24, 36, 48 and 60 hr from the administration, and the serum was prepared.
(§5) The content of IFN-γ in the serum after lapse of 3, 6, 12, 24, 36, 48 and 60 hr from the administration was measured by a method similar to the above-mentioned Experimental Example 1. In addition, the content of IL-4 in the serum after lapse of 3, 6 and 12 hr from the administration was measured by a method similar to the above-mentioned Experimental Example 1.
In general terms: An ELISA detects its analyte on a solid surface through an enzyme-linked reagent.

The test system of assay [4] is IL-4. As to the kind of experiment: IL-4 content in serum after intraperitoneal administration of synthetic glycolipid to mouse (Cytometric bead array system). The note with it: 100 μg/kg body weight intraperitoneally, C57BL/6 mice, 12 hr (compounds 23, 24) or 3, 6, 12 hr (compound 33) after administration. It counts as in vivo. Here is the method:
as §1, §2, §3, §4, §5

In assay [5] the test system is NKT cells. The following applies: series of synthetic analogs of α-galactosylceramide; cited from earlier work.

Structures are written as SMILES.

As for `CCCCCCCCCCCCCCCCCCCCCCCCCC(=O)N[C@@H](CO[C@H]1CC(CO)[C@H](O)C(O)C1O)[C@H](O)[C@H](O)CCCCCCCCCCCCCC` (stereo partly shown), the “IFN-γ production by NKT cells” value in assay [1] is recorded as “strongly induces”. In assay [2], the “activity on human NKT cells in vitro” value is listed as “strong activity”.

As for `CCCCCCC#CCCCCCC[C@@H](O)[C@@H](O)[C@H](CO[C@H]1O[C@H](CO)[C@H](O)[C@H](O)[C@H]1O)OC(=O)CCCCCCCCCCCCCCCCCCCCCCCCC` [Compound 23, (2S,3R,4R)-3,4-dihydroxy-2-hexacosanoyloxy-11-octadecyn-1-yl α-D-galactopyranoside], the “production of IFN-γ as compared to α-GalCer” value in assay [3] was “equivalent or higher”. In assay [4], the “production of IL-4 as compared to α-GalCer” value was “lower”.

Turning to `CCCCCCCCCCCCCCCCCCCCCCCCCC(=O)O[C@@H](CO[C@H]1O[C@H](CO)[C@H](O)[C@H](O)[C@H]1O)[C@H](O)[C@H](O)CCCCCCCCCCCCCC` [Compound 24, (2S,3R,4R)-3,4-dihydroxy-2-hexacosanoyloxyoctadecyl α-D-galactopyranoside], the “production of IFN-γ as compared to α-GalCer” value in assay [3] is “equivalent or higher”. Besides, the “production of IL-4 as compared to α-GalCer” value in assay [4] was “lower”.

Take `CCCCCCCCCCCCCCCCCCCCCCCCCC(=O)O[C@@H](CO[C@H]1O[C@H](COC)[C@H](O)[C@H](O)[C@H]1O)[C@H](O)[C@H](O)CCCCCCCCCCCCCC` [Compound 33, (2S,3R,4R)-3,4-dihydroxy-2-hexacosanoyloxyoctadecyl 6-O-methyl-α-D-galactopyranoside]: the “production of IFN-γ as compared to α-GalCer” value in assay [3] is given as “equivalent or higher”. Moreover, in assay [4], the “production of IL-4 as compared to α-GalCer” value is reported as “lower”.

As to `CCCCCCCCCCCCCCCCCCCCCCCCCC(=O)N[C@@H](CC[C@H]1OC(CO)[C@H](O)C(O)C1O)[C@H](O)[C@H](O)CCCCCCCCCCCCCC` (stereo partly drawn) [α-C-GalCer], the “activity on human NKT cells in vitro” value in assay [2] is on record as “very weak activity”.

On to `CCCCCCCCCCCCCCCCCCCCCCCCCC(=O)N[C@@H](CO[C@H]1OC(CO)[C@H](O)C(O)C1O)[C@H](O)[C@H](O)CCCCCCCCCCCCCC` (stereo partly drawn) [α-GalCer], for which the immunostimulatory activity result in assay [5] is given as “induces the strongest activity”.
